The assay concerns the target T1, PRMT5/MEP50 (Homo sapiens, UniProt O14744).
T1 construct: Expressed full-length human Flag-PRMT5/6His-MeP50 protein complex was purified; made in house; host or cells: Spodoptera frugiperda (SF9) insect cells, baculovirus (pDEST8)
As to the kind of experiment: PRMT5 Biochemical Assay (PRMT5/MEP50 enzyme assay on peptide substrate, 3H-SAM Flashplate). The settings on record: Table D-2; read-out: Biochemical IC50.
T1 sequence (O14744 with tags, fused parts or gaps): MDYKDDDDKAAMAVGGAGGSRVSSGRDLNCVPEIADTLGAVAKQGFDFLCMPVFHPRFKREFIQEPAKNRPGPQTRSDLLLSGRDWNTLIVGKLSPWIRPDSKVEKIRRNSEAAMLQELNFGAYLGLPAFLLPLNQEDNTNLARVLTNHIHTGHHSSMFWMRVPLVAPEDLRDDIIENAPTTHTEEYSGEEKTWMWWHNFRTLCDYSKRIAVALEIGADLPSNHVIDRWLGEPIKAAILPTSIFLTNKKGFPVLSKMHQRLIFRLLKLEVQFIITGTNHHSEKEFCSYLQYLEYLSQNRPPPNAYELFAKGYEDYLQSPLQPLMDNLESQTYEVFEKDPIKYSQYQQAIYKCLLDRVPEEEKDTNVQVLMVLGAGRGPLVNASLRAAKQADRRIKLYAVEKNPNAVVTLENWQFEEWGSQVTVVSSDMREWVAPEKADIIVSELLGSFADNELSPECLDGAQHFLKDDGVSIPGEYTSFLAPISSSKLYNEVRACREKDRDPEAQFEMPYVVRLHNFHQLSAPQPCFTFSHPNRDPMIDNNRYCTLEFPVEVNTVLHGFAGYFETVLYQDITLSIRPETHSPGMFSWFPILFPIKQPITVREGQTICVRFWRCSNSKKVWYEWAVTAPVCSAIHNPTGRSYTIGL
T1 sequence (Q9BQA1 with tags, fused parts or gaps partner limits assumed): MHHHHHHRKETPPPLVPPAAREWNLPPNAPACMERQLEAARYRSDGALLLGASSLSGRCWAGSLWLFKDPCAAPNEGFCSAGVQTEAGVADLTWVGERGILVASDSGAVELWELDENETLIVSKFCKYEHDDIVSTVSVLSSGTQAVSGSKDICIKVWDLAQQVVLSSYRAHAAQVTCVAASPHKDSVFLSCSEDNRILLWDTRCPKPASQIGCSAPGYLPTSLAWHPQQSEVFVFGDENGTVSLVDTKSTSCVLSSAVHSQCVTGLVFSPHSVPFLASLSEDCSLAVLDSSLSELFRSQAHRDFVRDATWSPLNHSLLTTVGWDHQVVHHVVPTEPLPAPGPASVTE
By IC50 is commonly meant the concentration needed to halve the response being measured. With `OC(COc1ccc(C2CCCNC2)cc1)CN1CCc2ccccc2C1` (centres unmarked) [Compound D47], the IC50 was below 0.1 µM.
Then `O=C(Cn1cnc2ccc(-c3cccc(OCC(O)CN4CCc5ccccc5C4)c3)cc21)N1CCOCC1` (centres unmarked) [Compound D264], with 0.101 to 1 µM; and `OC(COc1cccc(-c2cnc3ccccc3c2)c1)CN1CCc2ccccc2C1` (centres unmarked) [Compound D89], with 0.101 to 1 µM.
With `O=C(Cn1cnc2ccc(-c3cccc(OCC(O)CN4CCc5ccccc5C4)c3)cc21)N1CCCC1` (centres unmarked) [Compound D263] the figure was 0.101 to 1 µM; with `OCc1cccc(-c2cccc(OCC(O)CN3CCc4ccccc4C3)c2)c1` (centres unmarked) [Compound D72], 0.101 to 1 µM; with `COc1ccc(-c2cccc(OCC(O)CN3CCc4ccccc4C3)c2)c(Cl)c1` (centres unmarked) [Compound D88], 0.101 to 1 µM.
Then `O[C@@H](COc1cccc(-c2cccc3cccnc23)c1)CN1CCc2ccccc2C1` [Compound D257], with below 0.1 µM.
With `CN1CCC(n2cnc3ccc(-c4cccc(OCC(O)CN5CCc6ccccc6C5)c4)cc32)CC1` (centres unmarked) [Compound D221], the IC50 was below 0.1 µM.
Then `Cn1cnc2cc(-c3cccc(OCC(O)CN4CCc5ccccc5C4)c3)ccc21` (centres unmarked) [Compound D60], with 0.101 to 1 µM; and `Cc1ncc2ccc(-c3cccc(OCC(O)CN4CCc5ccccc5C4)c3)cn12` (centres unmarked) [Compound D266], with below 0.1 µM.
With `CN1CCC(n2cnc3ccc(-c4ccnc(NCC(O)CN5CCc6ccccc6C5)c4)cc32)C1` (centres unmarked) [Compound D250] the figure was below 0.1 µM; with `OC(COc1cccc(-c2ccccc2)c1)CN1CCc2ccccc2C1` (centres unmarked) [Compound D43], 0.101 to 1 µM; with `OC(COc1cccc(-c2cccc3c2oc2ccccc23)c1)CN1CCc2ccccc2C1` (centres unmarked) [Compound D86], 0.101 to 1 µM.
Then `OC(COc1cccc(-c2ccc3nc[nH]c3c2)c1)CN1CCc2ccccc2C1` (centres unmarked) [Compound D83], with 0.101 to 1 µM; and `OC(CNc1cccc(-c2cccc3[nH]cnc23)c1)CN1CCc2ccccc2C1` (centres unmarked) [Compound D235], with 0.101 to 1 µM; and `O=C(Cn1cnc2ccc(-c3cccc(OCC(O)CN4CCc5ccccc5C4)c3)cc21)N1CCCCC1` (centres unmarked) [Compound D249], with 0.101 to 1 µM.
`CC(=O)c1cccc(-c2cccc(OCC(O)CN3CCc4ccccc4C3)c2)c1` (centres unmarked) [Compound D67]: the IC50 fell in the range of 0.101 to 1 µM.
With `OC(COc1cccc(-c2ccccc2Cl)c1)CN1CCc2ccccc2C1` (centres unmarked) [Compound D92] the figure was 0.101 to 1 µM; with `OC(COc1cccc(-c2ccc3ncn(C4COC4)c3c2)c1)CN1CCc2ccccc2C1` (centres unmarked) [Compound D269], below 0.1 µM; with `CC(C)n1cnc2ccc(-c3cccc(OCC(O)CN4CCc5ccccc5C4)c3)cc21` (centres unmarked) [Compound D81], 0.101 to 1 µM.
With `OC(COc1cccc(-c2ccc3nn[nH]c3c2)c1)CN1CCc2ccccc2C1` (centres unmarked) [Compound D84], the half-inhibitory concentration (IC50) fell in the range of 0.101 to 1 µM.
For the compound `Cn1ccc2cnc(-c3ccnc(NCC(O)CN4CCc5ccccc5C4)c3)nc21` (centres unmarked) [Compound D239], the IC50 was below 0.1 µM.
Then `OC(COc1cccc(-c2cccc(F)c2F)c1)CN1CCc2ccccc2C1` (centres unmarked) [Compound D68], with 0.101 to 1 µM; and `OC(CNc1cc(-c2ncc3ccn(C4CCNCC4)c3n2)ccn1)CN1CCc2ccccc2C1` (centres unmarked) [Compound D255], with below 0.1 µM.
With `CC(=O)N(CC(O)CN1CCc2ccccc2C1)c1cccc(-c2ccc3ncn(C)c3c2)c1` (centres unmarked) [Compound D273] the figure was below 0.1 µM; with `OC(COc1cccc(-c2ccc3ncn(C4CCNCC4)c3c2)c1)CN1CCc2ccccc2C1` (centres unmarked) [Compound D220], below 0.1 µM; with `OC(COc1cccc(-c2ccc3ncn(C4CCNC4)c3c2)c1)CN1CCc2ccccc2C1` (centres unmarked) [Compound D209], below 0.1 µM.
Then `OC(COc1cccc(-c2ccc3cn[nH]c3c2)c1)CN1CCc2ccccc2C1` (centres unmarked) [Compound D58], with 0.101 to 1 µM; and `Cn1cnc2ccc(-c3cc(NCC(O)CN4CCc5ccccc5C4)n[nH]3)cc21` (centres unmarked) [Compound D271], with 0.101 to 1 µM; and `COC(COc1cccc(CNC2CCCC2)c1)CN1CCc2ccccc2C1` (centres unmarked) [Compound D32], with 1 to 10 µM.
In the case of `Cn1ncc2cnc(-c3cccc(OCC(O)CN4CCc5ccccc5C4)c3)cc21` (centres unmarked) [Compound D248], the 50% inhibitory concentration (IC50) lay within 0.101 to 1 µM.
With `OC(COc1cccc(-c2cc(C(F)(F)F)ccc2Cl)c1)CN1CCc2ccccc2C1` (centres unmarked) [Compound D62] the figure was 0.101 to 1 µM; with `Cn1ccc2ccc(-c3cc(NCC(O)CN4CCc5ccccc5C4)ncn3)cc21` (centres unmarked) [Compound D237], 0.101 to 1 µM; with `CN1CCN(C(=O)Cn2ccc3cnc(-c4ccnc(NCC(O)CN5CCc6ccccc6C5)c4)nc32)CC1` (centres unmarked) [Compound D247], below 0.1 µM.
Then `COc1ccc(-c2cccc(OCC(O)CN3CCc4ccccc4C3)c2)cc1` (centres unmarked) [Compound D75], with 0.101 to 1 µM; and `Cn1cc2ccc(-c3ccnc(NCC(O)CN4CCc5ccccc5C4)c3)cc2n1` (centres unmarked) [Compound D236], with below 0.1 µM.
For the compound `OC(CNc1cc(-c2ncc3ccn(C4CNC4)c3n2)ccn1)CN1CCc2ccccc2C1` (centres unmarked) [Compound D254], the IC50 is below 0.1 µM.
As for `OC(CNc1cc(-c2ccc3ncn(C4CCNCC4)c3c2)ccn1)CN1CCc2ccccc2C1` (centres unmarked) [Compound D241], the 50% inhibitory concentration (IC50) is below 0.1 µM.
Then `Cn1cnc2ccc(-c3ccnc(NC[C@H](O)CN4CCc5ccccc5C4)c3)cc21` [Compound D275], with below 0.1 µM.
With `CN1CC(n2cnc3ccc(-c4cccc(OCC(O)CN5CCc6ccccc6C5)c4)cc32)C1` (centres unmarked) [Compound D218] the figure was below 0.1 µM.
With `CN1CCC(n2cnc3ccc(-c4cccc(OCC(O)CN5CCc6ccccc6C5)c4)cc32)C1` (centres unmarked) [Compound D219] the figure was below 0.1 µM.
`Cn1cc2ccc(-c3cccc(OCC(O)CN4CCc5ccccc5C4)c3)nc2n1` (centres unmarked) [Compound D210]: the 50% inhibitory concentration (IC50) is below 0.1 µM.
Then `CC(=O)N1CCC(n2ccc3cnc(-c4ccnc(NCC(O)CN5CCc6ccccc6C5)c4)nc32)CC1` (centres unmarked) [Compound D256], with below 0.1 µM.
Then `Cn1ncc2c1CN(c1cccc(OCC(O)CN3CCc4ccccc4C3)c1)CC2` (centres unmarked) [Compound D216], with 0.101 to 1 µM; and `CC1c2ccccc2CCN1CC(O)COc1cccc(-c2ccc3ncn(C)c3c2)c1` (centres unmarked) [Compound D80], with 0.101 to 1 µM.
Take `CC(=O)N1CCC(n2cnc3ccc(-c4ccnc(NCC(O)CN5CCc6ccccc6C5)c4)cc32)CC1` (centres unmarked) [Compound D242]: the concentration for half-maximal inhibition (IC50) is 0.101 to 1 µM.
Then `O=C(Cn1ccc2cnc(-c3ccnc(NCC(O)CN4CCc5ccccc5C4)c3)nc21)N1CCCC1` (centres unmarked) [Compound D233], with below 0.1 µM; and `OC(COc1cccc(-c2ccc3c(c2)OCCO3)c1)CN1CCc2ccccc2C1` (centres unmarked) [Compound D85], with 0.101 to 1 µM; and `OC(COc1cccc(-c2ccc3ncn(C4CNC4)c3c2)c1)CN1CCc2ccccc2C1` (centres unmarked) [Compound D208], with 0.101 to 1 µM.
Then `OC(COc1cccc(-c2ccc3c(c2)OCO3)c1)CN1CCc2ccccc2C1` (centres unmarked) [Compound D59], with 0.101 to 1 µM; and `COc1cccc(-c2cccc(OCC(O)CN3CCc4ccccc4C3)c2)c1` (centres unmarked) [Compound D74], with 0.101 to 1 µM; and `Cn1cc2ccc(-c3cccc(NCC(O)CN4CCc5ccccc5C4)c3)nc2n1` (centres unmarked) [Compound D261], with below 0.1 µM.
As to `O=C(c1ccc(Cn2nccc2-c2ccc(OCC(O)CN3CCc4ccccc4C3)cc2)cc1)N1CCCC1` (centres unmarked) [Compound D31], the concentration for half-maximal inhibition (IC50) lay in the range of 0.101 to 1 µM.

The values are drawn from patent US20150344457A1, “METHODS OF INHIBITING PRMT5” (EPIZYME, INC., priority 2012, published 2015).
